Earlier results on one molecule are cited in patent US20060018840A1, “Aerosolizable formulation comprising nicotine” (priority 2004, published 2006).

As for `CC(O)C(=O)O` (stereo not shown) [lactic acid], the pKa result is “about 3.8”.
